Assay results taken from patent US20200360520A1, “USE OF RIFAMYCIN-QUINOLIZIDONE COUPLING MOLECULE” (priority 2019, published 2020).
Values after ≈ are worked out from the molar mass of the structure shown. Like-named read-outs stand apart in the source and are kept apart here. Each block holds one compound with its values, some of them ahead of it.

Experiments:
Format in all cases: cell-based
[1] = tested on: Mycobacterium avium; experiment: MIC by micro broth dilution method (resazurin microtiter assay); conditions: read-out: Minimum Inhibitory Concentration (MIC)
[2] = tested on: Mycobacterium abscessus; experiment: as above; conditions: Mycobacteroides abscessus, read-out: Minimum Inhibitory Concentration (MIC)
[3] = tested on: Mycobacterium kansasii; experiment: as above; conditions: for MIC: Mycobacterium kansasii, read-out: Minimum Inhibitory Concentration (MIC)
[4] = tested on: Mycobacterium avium; experiment: MBC test (plating on agar, CFU count); conditions: for MBC: Mycobacterium avium, read-out: Minimum Bactericidal Concentration (MBC)
[5] = tested on: Mycobacterium abscessus; experiment: MBC test (plating on agar, CFU count); conditions: for Minimum Bactericidal Concentration (MBC): MH Culture Medium; for MBC: Mycobacteroides abscessus, 7H9 Culture Medium, read-out: Minimum Bactericidal Concentration (MBC)
[6] = tested on: Mycobacterium kansasii; experiment: MBC test (plating on agar, CFU count); conditions: for MBC: Mycobacterium kansasii, read-out: Minimum Bactericidal Concentration (MBC)
[7] = tested on: Mycobacterium intracellulare; experiment: MIC by micro broth dilution method (resazurin microtiter assay); conditions: for MIC: Mycobacterium intracellulare, MH Culture Medium, read-out: Minimum Inhibitory Concentration (MIC)
[8] = tested on: Mycobacterium massiliense; experiment: as above; conditions: Mycobacteroides abscessus, MH Culture Medium, read-out: Minimum Inhibitory Concentration (MIC)
[9] = tested on: Mycobacterium fortuitum; experiment: as above; conditions: Mycolicibacterium fortuitum, MH Culture Medium, read-out: Minimum Inhibitory Concentration (MIC)
[10] = tested on: Mycodacterium chelonei; experiment: as above; conditions: MH Culture Medium; Chelonei (standard strain); read-out: Minimum Inhibitory Concentration (MIC)
[11] = 7H9 Broth, Mycobacterium avium Rough
[12] = 7H9 Broth, Mycobacterium avium Smooth
[13] = MH Broth, Mycobacterium avium Rough
[14] = MH Broth, Mycobacterium avium Smooth
[15] = MH Culture Medium, Avium (standard strain)
[16] = MH Culture Medium, clinically isolated strain Avium (S31)
[17] = MH Culture Medium, clinically isolated strain Avium (S123)
[18] = MH Culture Medium, clinically isolated strain Avium (S559)
[19] = MH Culture Medium, clinically isolated strain Avium (S568)
[20] = MH Culture Medium, clinically isolated strain Avium (S577)
[21] = MH Culture Medium, clinically isolated strain Avium (S597)
[22] = MH Culture Medium, clinically isolated strain Avium (S602)
[23] = MH Culture Medium, Kansasii (standard strain)
[24] = MH Culture Medium, clinically isolated strain Kansasii (S9)
[25] = MH Culture Medium, clinically isolated strain Kansasii (S199)
[26] = MH Culture Medium, clinically isolated strain Kansasii (S520)
[27] = MH Culture Medium, clinically isolated strain Kansasii (S609)
[28] = 7H9 Culture Medium, Mycobacterium avium Rough
[29] = 7H9 Culture Medium, Mycobacterium avium Smooth
[30] = MH Culture Medium, Mycobacterium avium Smooth
[31] = Intracellulare (standard strain)
[32] = clinically isolated strain Intracellulare (S90)
[33] = clinically isolated strain Intracellulare (S261)
[34] = clinically isolated strain Intracellulare (S269)
[35] = clinically isolated strain Intracellulare (S290)
[36] = clinically isolated strain Intracellulare (S291)
[37] = clinically isolated strain Intracellulare (S298)
[38] = clinically isolated strain Intracellulare (S541)
[39] = clinically isolated strain Intracellulare (S623)
[40] = clinically isolated strain Intracellulare (ZPS)
[41] = clinically isolated strain intracellulare (S442)
[42] = clinically isolated strain Massiliense (D10)
[43] = clinically isolated strain Massiliense (D14)
[44] = clinically isolated strain Massiliense (D18)
[45] = clinically isolated strain Fortuitum (S103)
[46] = clinically isolated strain Fortuitum (S111)

- MIC [1, 11]: > 64 µg/mL
- MIC [1, 12]: 4 µg/mL (≈ 3.32 µM)
- MIC [1, 13]: > 64 µg/mL
- MIC [1, 14]: 4 µg/mL (≈ 3.32 µM)
- MIC [1, 15]: 1 µg/mL (≈ 0.831 µM)
- MIC [1, 16]: 0.25 µg/mL (≈ 0.208 µM)
- MIC [1, 17]: 8 µg/mL (≈ 6.65 µM)
- MIC [1, 18]: 0.25 µg/mL (≈ 0.208 µM)
- MIC [1, 19]: 32 µg/mL (≈ 26.6 µM)
- MIC [1, 20]: 0.125 µg/mL (≈ 0.104 µM)
- MIC [1, 21]: > 64 µg/mL
- MIC [1, 22]: 8 µg/mL (≈ 6.65 µM)
- MIC ([2]; 7H9 Broth): 1 µg/mL (≈ 0.831 µM)
- MIC ([2]; MH Broth): 1 µg/mL (≈ 0.831 µM)
- MIC ([3]; 7H9 Broth): 2 µg/mL (≈ 1.66 µM)
- MIC ([3]; MH Broth): 2 µg/mL (≈ 1.66 µM)
- MIC [3, 23]: 0.0625 µg/mL (≈ 0.0519 µM)
- MIC [3, 24]: 0.25 µg/mL (≈ 0.208 µM)
- MIC [3, 25]: 0.0625 µg/mL (≈ 0.0519 µM)
- MIC [3, 26]: 0.0625 µg/mL (≈ 0.0519 µM)
- MIC [3, 27]: 0.0625 µg/mL (≈ 0.0519 µM)
- MIC [7, 31]: 0.5 µg/mL (≈ 0.415 µM)
- MIC [7, 32]: 64 µg/mL (≈ 53.2 µM)
- MIC [7, 33]: 64 µg/mL (≈ 53.2 µM)
- MIC [7, 34]: > 64 µg/mL
- MIC [7, 35]: 64 µg/mL (≈ 53.2 µM)
- MIC [7, 36]: 64 µg/mL (≈ 53.2 µM)
- MIC [7, 37]: 64 µg/mL (≈ 53.2 µM)
- MIC [7, 38]: 32 µg/mL (≈ 26.6 µM)
- MIC [7, 39]: 64 µg/mL (≈ 53.2 µM)
- MIC [7, 40]: 32 µg/mL (≈ 26.6 µM)
- MIC [7, 41]: 32 µg/mL (≈ 26.6 µM)
- MIC [8, 42]: > 64 µg/mL
- MIC [8, 43]: > 64 µg/mL
- MIC [8, 44]: > 64 µg/mL
- MIC ([9]; Fortuitum (standard strain)): 64 µg/mL (≈ 53.2 µM)
- MIC [9, 45]: > 64 µg/mL
- MIC [9, 46]: > 64 µg/mL
- MIC [10]: 64 µg/mL (≈ 53.2 µM)
SMILES: CO[C@H]1/C=C/O[C@@]2(C)Oc3c(C)c(O)c4c(O)c(c(/C=N/N5CCC(N(C)C6([C@@H]7CCN(c8c(F)cn9c(=O)c(C(=O)O)cc(C%10CC%10)c9c8C)C7)CC6)CC5)c(O)c4c3C2=O)NC(=O)/C(C)=C\C=C\[C@H](C)[C@H](O)[C@@H](C)[C@@H](O)[C@@H](C)[C@H](CC(C)=O)[C@@H]1C [Compound I]
- activity compared with controls, in words ([3]; against mycobacterium kansasii): much higher than that of rifampicin, ciprofloxacin and metronidazole
- MBC [4, 28]: > 64 µg/mL
- MBC [4, 29]: 16 µg/mL (≈ 13.3 µM)
- MBC ([4]; MH Culture Medium, Mycobacterium avium Rough): > 64 µg/mL
- MBC [4, 30]: 16 µg/mL (≈ 13.3 µM)
- bactericidal activity (MBC), in words ([4]; against smooth type strain of Mycobacterium avium): had an activity
- Minimum Bactericidal Concentration (MBC) [5]: 1 µg/mL
- MBC [5]: 1 µg/mL (≈ 0.831 µM)
- MBC ([6]; 7H9 Culture Medium): 2 µg/mL (≈ 1.66 µM)
- MBC ([6]; MH Culture Medium): 2 µg/mL (≈ 1.66 µM)
- bactericidal activity (MBC) compared with controls, in words ([6]; against mycobacterium kansasii): higher than or much higher than that of all other tested antibiotic drugs
- activity, in words ([7]; against Mycobacterium intracellulare): weak

SMILES: CO[C@H]1/C=C/O[C@@]2(C)Oc3c(C)c(O)c4c(O)c(c(/C=N/N5CCN(C)CC5)c(O)c4c3C2=O)NC(=O)/C(C)=C\C=C\[C@H](C)[C@H](O)[C@@H](C)[C@@H](O)[C@@H](C)[C@H](OC(C)=O)[C@@H]1C [Rifampicin, rifampicin]
- MIC [1, 11]: 8 µg/mL (≈ 9.72 µM)
- MIC [1, 12]: 0.5 µg/mL (≈ 0.608 µM)
- MIC [1, 13]: 8 µg/mL (≈ 9.72 µM)
- MIC [1, 14]: 1 µg/mL (≈ 1.22 µM)
- MIC [1, 15]: 0.25 µg/mL (≈ 0.304 µM)
- MIC [1, 16]: 0.0625 µg/mL (≈ 0.0759 µM)
- MIC [1, 17]: 8 µg/mL (≈ 9.72 µM)
- MIC [1, 18]: 0.125 µg/mL (≈ 0.152 µM)
- MIC [1, 19]: 4 µg/mL (≈ 4.86 µM)
- MIC [1, 20]: 0.125 µg/mL (≈ 0.152 µM)
- MIC [1, 21]: 8 µg/mL (≈ 9.72 µM)
- MIC [1, 22]: 2 µg/mL (≈ 2.43 µM)
- MIC ([2]; 7H9 Broth): > 64 µg/mL
- MIC ([2]; MH Broth): > 64 µg/mL
- MIC ([3]; 7H9 Broth): 16 µg/mL (≈ 19.4 µM)
- MIC ([3]; MH Broth): 16 µg/mL (≈ 19.4 µM)
- MIC [3, 23]: 0.125 µg/mL (≈ 0.152 µM)
- MIC [3, 24]: 0.125 µg/mL (≈ 0.152 µM)
- MIC [3, 25]: 0.0625 µg/mL (≈ 0.0759 µM)
- MIC [3, 26]: 0.0625 µg/mL (≈ 0.0759 µM)
- MIC [3, 27]: 0.0625 µg/mL (≈ 0.0759 µM)
- MBC [4, 28]: > 64 µg/mL
- MBC [4, 29]: 4 µg/mL (≈ 4.86 µM)
- MBC [4, 30]: 4 µg/mL (≈ 4.86 µM)
- Minimum Bactericidal Concentration (MBC) [5]: >64 µg/mL
- MBC [5]: > 64 µg/mL
- MBC ([6]; 7H9 Culture Medium): 4 µg/mL (≈ 4.86 µM)
- MBC ([6]; MH Culture Medium): 4 µg/mL (≈ 4.86 µM)
- MIC [7, 31]: 0.25 µg/mL (≈ 0.304 µM)
- MIC [7, 32]: 8 µg/mL (≈ 9.72 µM)
- MIC [7, 33]: 16 µg/mL (≈ 19.4 µM)
- MIC [7, 34]: 4 µg/mL (≈ 4.86 µM)
- MIC [7, 35]: 4 µg/mL (≈ 4.86 µM)
- MIC [7, 36]: 4 µg/mL (≈ 4.86 µM)
- MIC [7, 37]: 4 µg/mL (≈ 4.86 µM)
- MIC [7, 38]: 16 µg/mL (≈ 19.4 µM)
- MIC [7, 39]: 8 µg/mL (≈ 9.72 µM)
- MIC [7, 40]: 2 µg/mL (≈ 2.43 µM)
- MIC [7, 41]: 2 µg/mL (≈ 2.43 µM)
- MIC [8, 42]: > 64 µg/mL
- MIC [8, 43]: > 64 µg/mL
- MIC [8, 44]: > 64 µg/mL
- MIC ([9]; Fortuitum (standard strain)): > 64 µg/mL
- MIC [9, 45]: > 64 µg/mL
- MIC [9, 46]: 64 µg/mL (≈ 77.8 µM)
- MIC [10]: > 64 µg/mL

- MIC [1, 12]: > 64 µg/mL
- MIC [1, 14]: > 64 µg/mL
- MIC [1, 15]: 8 µg/mL (≈ 46.7 µM)
- MIC [1, 16]: 16 µg/mL (≈ 93.5 µM)
- MIC [1, 17]: 8 µg/mL (≈ 46.7 µM)
- MIC [1, 18]: 8 µg/mL (≈ 46.7 µM)
- MIC [1, 19]: 8 µg/mL (≈ 46.7 µM)
- MIC [1, 20]: 8 µg/mL (≈ 46.7 µM)
- MIC [1, 21]: 8 µg/mL (≈ 46.7 µM)
- MIC [1, 22]: 32 µg/mL (≈ 187 µM)
- MIC ([2]; 7H9 Broth): > 64 µg/mL
- MIC ([2]; MH Broth): > 64 µg/mL
- MIC ([3]; 7H9 Broth): > 64 µg/mL
- MIC ([3]; MH Broth): > 64 µg/mL
- MIC [3, 23]: 8 µg/mL (≈ 46.7 µM)
- MIC [3, 24]: 8 µg/mL (≈ 46.7 µM)
- MIC [3, 25]: 8 µg/mL (≈ 46.7 µM)
- MIC [3, 26]: 8 µg/mL (≈ 46.7 µM)
- MIC [3, 27]: 8 µg/mL (≈ 46.7 µM)
- MIC [7, 31]: 8 µg/mL (≈ 46.7 µM)
- MIC [7, 32]: 16 µg/mL (≈ 93.5 µM)
- MIC [7, 33]: 16 µg/mL (≈ 93.5 µM)
- MIC [7, 34]: 16 µg/mL (≈ 93.5 µM)
- MIC [7, 35]: 8 µg/mL (≈ 46.7 µM)
- MIC [7, 36]: 8 µg/mL (≈ 46.7 µM)
- MIC [7, 37]: 16 µg/mL (≈ 93.5 µM)
- MIC [7, 38]: 16 µg/mL (≈ 93.5 µM)
- MIC [7, 39]: 8 µg/mL (≈ 46.7 µM)
- MIC [7, 40]: 8 µg/mL (≈ 46.7 µM)
- MIC [7, 41]: 8 µg/mL (≈ 46.7 µM)
- MIC [8, 42]: 16 µg/mL (≈ 93.5 µM)
- MIC [8, 43]: 16 µg/mL (≈ 93.5 µM)
- MIC [8, 44]: 8 µg/mL (≈ 46.7 µM)
- MIC ([9]; Fortuitum (standard strain)): 16 µg/mL (≈ 93.5 µM)
- MIC [9, 45]: 8 µg/mL (≈ 46.7 µM)
- MIC [9, 46]: 16 µg/mL (≈ 93.5 µM)
- MIC [10]: 16 µg/mL (≈ 93.5 µM)
SMILES: Cc1ncc([N+](=O)[O-])n1CCO [Metronidazole, metronidazole]
- MBC [4, 29]: > 64 µg/mL
- MBC [4, 30]: > 64 µg/mL
- Minimum Bactericidal Concentration (MBC) [5]: >64 µg/mL
- MBC [5]: > 64 µg/mL
- MBC ([6]; 7H9 Culture Medium): > 64 µg/mL
- MBC ([6]; MH Culture Medium): > 64 µg/mL
